Assay results taken from ChEMBL document CHEMBL1201862, “PubChem BioAssay data set” (2004).
Active and inactive are the calls of the source.

Columns and labels:
[1] = biological target: T1, Heat shock 70 kDa protein 1A (Homo sapiens, UniProt P0DMV8); assay: small-molecule inhibition of Hsp70 – biochemical, TR-FRET (AID 786)
[2] = biological target: T1, Heat shock 70 kDa protein 1A; assay: small molecules displacing fluorescent ligand from Hsp70 – biochemical, fluorescence polarization, primary screen (AID 583)
[3] = biological target: Neurotensin receptor type 1 (Homo sapiens, UniProt P30989); format: functional;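 further: Image-based confirmatory dose-response assay measuring agonist activity at NTR1; NTR1-expressing U2OS osteosarcoma cells imaged for beta-arrestin GFP spot formation; agonist potency where compounds increase beta-arrestin recruitment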
Albumin = Albumin (Bos taurus, UniProt P02769); assay: Counterscreen for inhibitors of T-cell receptor (TCR)-CD3 interaction: Fluorescence-based biochemical high throughput dose response assay to identify inhibitors of T-cell receptor (TCR)-CD3 interaction using a TAMRA-labeled BSA probe.; format: functional
[4] = viability loss in THP-1 monocytes – THP-1 cells, cytotoxicity control for Vif-APOBEC3G degradation inhibitor project, dose response (AID 1117359); format: functional; details: THP-1
Large T antigen = Large T antigen (Simian virus 40, UniProt P03070); format: functional, Betapolyomavirus macacae;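 further: Confirmatory-stage PubChem screen for compounds that inhibit SV40 T antigen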
[5] = biological target: 72 kDa type IV collagenase (Homo sapiens, UniProt P08253); assay: Dose Response validation of uHTS RPN11 inhibitor hits using a MMP-2 Fluorescence assay.; format: functional
[6] = biological target: Induced myeloid leukemia cell differentiation protein Mcl-1 (Homo sapiens, UniProt Q07820); format: functional
[7] = biological target: 26S proteasome non-ATPase regulatory subunit 14 (Homo sapiens, UniProt O00487); assay: inhibition of proteasome subunit RPN11 – biochemical, fluorescence polarization, uHTS hits, confirmation (AID 602368); format: functional
Prothrombin = Prothrombin (Bos taurus, UniProt P00735); assay: thrombin protease inhibitors – biochemical, fluorescence polarization, uHTS hits, dose response (AID 602369); format: functional
SUMO-activating enzyme [8] = biological target: T2, SUMO-activating enzyme (Homo sapiens, UniProt Q9UBT2); assay: blockers of UBC9-mediated SUMO conjugation – biochemical, AlphaScreen, SUMOylation inhibitor project, confirmation (AID 2018); format: functional
SUMO-activating enzyme [9] = biological target: T2, SUMO-activating enzyme; assay: blockers of SAE1/SAE2–UBC9 SUMO transfer – biochemical, HTRF, uHTS, primary screen (AID 2006); format: protein-complex assay
NS3 = NS3 (Hepatitis C virus, UniProt A3EZJ3); assay: PubChem AID 2173; parameters: species or system Hepacivirus hominis
[10] = HEK-293T cell viability reduction – luminescence, B-cell screen hits, cytotoxicity control for BCR NF-kB inhibitor project, dose response (AID 489021); format: functional, cell-based;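 further: HEK-293T cells carrying an NF-kB luciferase reporter; cells exposed to compound for about 14 hours before viability readout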

T1 sequence (P0DMV8 whole entry): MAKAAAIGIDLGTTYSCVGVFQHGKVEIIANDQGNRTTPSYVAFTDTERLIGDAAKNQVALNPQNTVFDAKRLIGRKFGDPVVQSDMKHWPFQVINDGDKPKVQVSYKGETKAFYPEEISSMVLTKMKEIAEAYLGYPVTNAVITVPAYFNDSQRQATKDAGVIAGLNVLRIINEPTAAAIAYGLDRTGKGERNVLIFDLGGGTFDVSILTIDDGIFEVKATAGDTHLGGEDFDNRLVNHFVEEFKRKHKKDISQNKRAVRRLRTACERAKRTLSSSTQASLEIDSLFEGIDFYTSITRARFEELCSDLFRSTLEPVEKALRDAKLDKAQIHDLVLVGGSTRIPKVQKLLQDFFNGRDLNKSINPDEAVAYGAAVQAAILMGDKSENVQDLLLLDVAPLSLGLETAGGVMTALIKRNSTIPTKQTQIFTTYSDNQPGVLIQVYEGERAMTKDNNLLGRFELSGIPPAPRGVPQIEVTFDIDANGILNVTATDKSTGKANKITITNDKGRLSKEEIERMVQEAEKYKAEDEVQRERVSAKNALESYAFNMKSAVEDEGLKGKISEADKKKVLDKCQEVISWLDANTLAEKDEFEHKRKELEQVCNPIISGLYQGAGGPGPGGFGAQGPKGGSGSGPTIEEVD
T2 sequence (Q9UBE0 whole entry): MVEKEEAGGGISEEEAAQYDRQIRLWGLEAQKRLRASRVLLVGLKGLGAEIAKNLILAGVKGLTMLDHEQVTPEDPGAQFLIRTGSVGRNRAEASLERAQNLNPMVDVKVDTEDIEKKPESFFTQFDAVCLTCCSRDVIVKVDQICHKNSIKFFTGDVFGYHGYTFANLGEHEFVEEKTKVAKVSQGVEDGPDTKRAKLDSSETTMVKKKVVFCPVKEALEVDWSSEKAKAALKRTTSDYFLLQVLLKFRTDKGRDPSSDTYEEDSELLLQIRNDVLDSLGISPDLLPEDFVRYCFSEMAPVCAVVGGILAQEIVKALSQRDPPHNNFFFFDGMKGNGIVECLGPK
T2 sequence (Q9UBT2 whole entry): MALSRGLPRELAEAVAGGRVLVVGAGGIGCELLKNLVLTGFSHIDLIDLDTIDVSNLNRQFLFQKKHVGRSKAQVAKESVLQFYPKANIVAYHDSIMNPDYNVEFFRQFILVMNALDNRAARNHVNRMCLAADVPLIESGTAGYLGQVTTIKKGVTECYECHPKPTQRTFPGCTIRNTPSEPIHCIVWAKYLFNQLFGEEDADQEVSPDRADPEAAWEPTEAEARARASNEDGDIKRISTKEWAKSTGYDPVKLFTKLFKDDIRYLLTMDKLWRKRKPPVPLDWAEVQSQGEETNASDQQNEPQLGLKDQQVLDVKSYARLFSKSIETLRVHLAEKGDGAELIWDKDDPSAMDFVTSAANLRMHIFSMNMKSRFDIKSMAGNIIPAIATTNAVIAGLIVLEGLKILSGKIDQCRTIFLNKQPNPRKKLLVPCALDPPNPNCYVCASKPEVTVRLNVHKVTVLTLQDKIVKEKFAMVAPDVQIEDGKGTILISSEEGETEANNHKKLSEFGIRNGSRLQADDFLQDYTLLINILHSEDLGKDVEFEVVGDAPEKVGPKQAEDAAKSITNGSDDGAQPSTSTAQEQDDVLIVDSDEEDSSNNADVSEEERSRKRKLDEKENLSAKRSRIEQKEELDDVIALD
Sequence of Induced myeloid leukemia cell differentiation protein Mcl-1 (Q07820 whole entry): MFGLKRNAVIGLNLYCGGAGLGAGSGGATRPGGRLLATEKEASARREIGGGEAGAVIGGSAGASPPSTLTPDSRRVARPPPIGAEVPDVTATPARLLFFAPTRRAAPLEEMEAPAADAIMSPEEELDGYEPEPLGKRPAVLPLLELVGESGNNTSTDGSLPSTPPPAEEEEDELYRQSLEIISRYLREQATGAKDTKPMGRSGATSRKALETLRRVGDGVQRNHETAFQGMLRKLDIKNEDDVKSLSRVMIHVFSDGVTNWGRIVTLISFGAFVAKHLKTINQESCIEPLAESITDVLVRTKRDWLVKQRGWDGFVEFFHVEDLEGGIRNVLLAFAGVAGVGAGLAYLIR
Sequence of Large T antigen (P03070 whole entry): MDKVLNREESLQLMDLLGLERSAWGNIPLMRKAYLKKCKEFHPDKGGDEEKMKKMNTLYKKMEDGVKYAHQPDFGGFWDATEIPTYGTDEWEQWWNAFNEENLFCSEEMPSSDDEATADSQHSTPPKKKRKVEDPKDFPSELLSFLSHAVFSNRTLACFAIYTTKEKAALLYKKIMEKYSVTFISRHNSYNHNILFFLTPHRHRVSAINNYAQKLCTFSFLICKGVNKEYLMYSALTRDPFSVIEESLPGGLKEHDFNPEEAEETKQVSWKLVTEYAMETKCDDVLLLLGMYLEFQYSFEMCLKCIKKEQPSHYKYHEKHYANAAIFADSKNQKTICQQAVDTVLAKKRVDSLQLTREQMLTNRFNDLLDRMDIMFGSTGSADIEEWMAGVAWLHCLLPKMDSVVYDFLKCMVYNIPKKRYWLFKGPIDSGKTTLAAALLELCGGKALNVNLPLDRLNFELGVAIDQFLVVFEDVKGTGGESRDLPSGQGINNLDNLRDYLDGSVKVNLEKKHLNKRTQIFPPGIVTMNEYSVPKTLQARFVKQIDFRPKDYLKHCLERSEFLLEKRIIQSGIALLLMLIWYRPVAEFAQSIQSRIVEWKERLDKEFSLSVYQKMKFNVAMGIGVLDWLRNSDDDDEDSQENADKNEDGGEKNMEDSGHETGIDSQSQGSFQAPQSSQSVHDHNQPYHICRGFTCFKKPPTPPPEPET
Sequence of 72 kDa type IV collagenase (P08253 whole entry): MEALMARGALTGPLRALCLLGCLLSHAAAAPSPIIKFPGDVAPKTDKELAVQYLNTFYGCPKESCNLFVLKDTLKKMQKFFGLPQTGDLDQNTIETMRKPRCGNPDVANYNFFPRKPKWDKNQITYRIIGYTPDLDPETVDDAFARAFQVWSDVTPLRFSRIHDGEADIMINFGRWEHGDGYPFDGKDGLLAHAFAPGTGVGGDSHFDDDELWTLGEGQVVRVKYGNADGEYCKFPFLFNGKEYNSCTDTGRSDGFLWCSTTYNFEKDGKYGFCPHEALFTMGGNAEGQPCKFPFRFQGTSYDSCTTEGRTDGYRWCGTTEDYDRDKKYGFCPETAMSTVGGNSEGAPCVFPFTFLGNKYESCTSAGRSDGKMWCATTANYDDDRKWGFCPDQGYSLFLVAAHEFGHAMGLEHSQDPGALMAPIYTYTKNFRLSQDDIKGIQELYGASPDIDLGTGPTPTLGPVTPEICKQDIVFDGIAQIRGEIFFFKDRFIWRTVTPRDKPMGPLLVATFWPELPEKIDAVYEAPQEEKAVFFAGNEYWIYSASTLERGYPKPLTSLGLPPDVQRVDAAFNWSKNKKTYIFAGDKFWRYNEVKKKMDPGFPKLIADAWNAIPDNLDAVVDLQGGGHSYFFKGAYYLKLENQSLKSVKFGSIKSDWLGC
Sequence of NS3 (A3EZJ3 whole entry): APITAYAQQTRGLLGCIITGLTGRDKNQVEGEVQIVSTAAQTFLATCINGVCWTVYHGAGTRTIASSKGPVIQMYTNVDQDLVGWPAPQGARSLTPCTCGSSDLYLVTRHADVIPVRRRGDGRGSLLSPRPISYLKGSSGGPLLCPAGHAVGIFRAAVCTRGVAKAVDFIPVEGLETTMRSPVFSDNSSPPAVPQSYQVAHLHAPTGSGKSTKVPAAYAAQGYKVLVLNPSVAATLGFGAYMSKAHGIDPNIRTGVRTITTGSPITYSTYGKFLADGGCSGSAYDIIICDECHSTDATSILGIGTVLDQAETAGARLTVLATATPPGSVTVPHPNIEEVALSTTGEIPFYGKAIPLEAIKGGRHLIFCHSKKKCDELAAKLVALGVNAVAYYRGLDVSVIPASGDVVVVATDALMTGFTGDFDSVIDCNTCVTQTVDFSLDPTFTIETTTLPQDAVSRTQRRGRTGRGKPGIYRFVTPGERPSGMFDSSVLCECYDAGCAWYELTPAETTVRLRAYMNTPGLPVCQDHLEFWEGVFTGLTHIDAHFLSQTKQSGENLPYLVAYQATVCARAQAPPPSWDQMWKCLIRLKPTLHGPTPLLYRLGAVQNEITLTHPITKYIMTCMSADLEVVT
Sequence of Albumin (P02769 whole entry): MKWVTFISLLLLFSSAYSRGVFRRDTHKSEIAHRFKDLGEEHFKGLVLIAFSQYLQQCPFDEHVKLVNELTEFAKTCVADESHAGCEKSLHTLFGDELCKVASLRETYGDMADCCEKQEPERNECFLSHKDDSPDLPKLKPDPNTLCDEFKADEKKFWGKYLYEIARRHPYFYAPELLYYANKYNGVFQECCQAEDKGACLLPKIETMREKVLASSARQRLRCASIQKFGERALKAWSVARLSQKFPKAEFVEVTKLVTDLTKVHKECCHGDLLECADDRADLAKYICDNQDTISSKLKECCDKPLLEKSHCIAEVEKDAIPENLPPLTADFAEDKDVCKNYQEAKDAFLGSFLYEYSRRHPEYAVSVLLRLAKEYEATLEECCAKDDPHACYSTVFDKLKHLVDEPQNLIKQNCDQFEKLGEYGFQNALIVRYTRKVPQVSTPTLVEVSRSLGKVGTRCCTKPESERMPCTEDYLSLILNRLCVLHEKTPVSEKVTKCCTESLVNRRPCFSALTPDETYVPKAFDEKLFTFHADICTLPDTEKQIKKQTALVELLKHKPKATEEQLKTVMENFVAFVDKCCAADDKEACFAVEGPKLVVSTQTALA
Sequence of Neurotensin receptor type 1 (P30989 whole entry): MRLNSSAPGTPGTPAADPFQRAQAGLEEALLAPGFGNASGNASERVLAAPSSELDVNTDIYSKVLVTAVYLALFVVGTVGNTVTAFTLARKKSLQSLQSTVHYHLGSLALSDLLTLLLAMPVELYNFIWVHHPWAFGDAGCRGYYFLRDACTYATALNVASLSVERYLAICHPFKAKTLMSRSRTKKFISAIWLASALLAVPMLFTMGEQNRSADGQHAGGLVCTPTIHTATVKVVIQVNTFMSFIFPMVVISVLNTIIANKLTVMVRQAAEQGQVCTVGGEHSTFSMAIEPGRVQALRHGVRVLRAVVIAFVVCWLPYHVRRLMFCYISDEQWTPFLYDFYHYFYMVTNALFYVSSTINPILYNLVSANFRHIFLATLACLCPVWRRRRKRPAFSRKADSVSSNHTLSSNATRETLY

C=CCOC(=O)C(C#N)c1nc2ccccc2nc1N1CCCC1 (centres undefined)
IC50 [1]: > 100 µM (not active)
IC50 [2]: > 100 µM (not active)

O=c1cc(-c2ccc(O)cc2)oc2cc(O)c(C3OC(CO)C(O)C(O)C3O)c(O)c12 (centres undefined)
EC50 [3]: 2.71 µM (active)
IC50 (Albumin): > 94.1 µM (inactive)
CC50 [4]: > 40 µM (active)
IC50 (Large T antigen): 21.4 µM (active)

Cc1ccc(CSc2nnc(SCC(=O)N/N=C/c3c[nH]c4ccccc34)s2)cc1
IC50 [5]: > 100 µM (inactive)
IC50 [6]: 3.91 µM (active)
IC50 [7]: 6.88 µM (active)
IC50 (Prothrombin): 55.4 µM (active)
IC50 (SUMO-activating enzyme [8]): 1.38 µM (active)
IC50 (SUMO-activating enzyme [9]): 17.6 µM (active)

COc1ccc2[nH]c3c(=O)n(CCCC(=O)NC4CCCCC4C)c(=S)[nH]c3c2c1 (centres undefined)
IC50 (NS3): 45.7 µM (not active)

COc1cc(C[C@@H]2C(=O)OC[C@H]2Cc2ccc(OC)c(OC)c2)ccc1O
IC50 [10]: > 80 µM (inactive)
